Patent US12077503B2, “Substituted cyclic amides and their use as herbicides” (FMC CORPORATION, priority 2015, dated 2024)

Assays:
Assay type in all cases: in vivo
rice (Oryza sativa) = assay: Test C flooded paddy test; details: Flood; for Plant response rating (scale of 0 to 100), Rice: 0 is no effect, 100 is complete control
In short: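 Rice, small-flower umbrella sedge, ducksalad and barnyardgrass at the 2-leaf stage were flooded to 3 cm, and compound was applied into the paddy water. After 13 to 15 d in a greenhouse, plants were rated visually against controls on a 0 (no effect) to 100 (complete control) scale.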

[1] = tested on: waterhemp (common waterhemp, Amaranthus rudis); assay: Test C preemergence; details: for Plant response rating, Waterhemp: scale 0 to 100, 0 no effect, 100 complete control
In short: (§1)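 Visual rating, 0–100 scale (0 = no effect, 100 = complete control) versus controls, 13–15 d after treatment. Compounds in non-phytotoxic solvent plus surfactant; applied preemergence to seeds in loam/sand soil or postemergence to 1- to 4-leaf plants (2–18 cm) in peat/vermiculite medium; greenhouse-held.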

[2] = tested on: blackgrass (Alopecurus myosuroides); assay: Test C preemergence; details: for Plant response rating, Blackgrass: scale 0 to 100, 0 no effect, 100 complete control
In short: as §1

[3] = tested on: nutsedge, yellow (yellow nutsedge, Cyperus esculentus); assay: Test C preemergence; details: for Plant response rating, Nutsedge, Yellow: scale 0 to 100, 0 no effect, 100 complete control
In short: as §1

[4] = tested on: johnsongrass (Sorghum halepense); assay: Test C preemergence; details: for Plant response rating, Johnsongrass: scale 0 to 100, 0 no effect, 100 complete control
In short: as §1

[5] = tested on: pigweed (Amaranthus retroflexus); assay: Test C preemergence; details: for Plant response rating, Pigweed: scale 0 to 100, 0 no effect, 100 complete control
In short: as §1

[6] = tested on: oilseed rape (Brassica napus); assay: Test C preemergence; details: for Plant response rating, Oilseed Rape: scale 0 to 100, 0 no effect, 100 complete control
In short: as §1

corn (Zea mays) = assay: Test C preemergence; details: for Plant response rating, Corn: scale 0 to 100, 0 no effect, 100 complete control
In short: as §1

soybean (Glycine max) = assay: Test C preemergence
In short: as §1

[7] = tested on: wheat (winter wheat, Triticum aestivum); assay: Test C preemergence; details: for Plant response rating, Wheat: scale 0 to 100, 0 no effect, 100 complete control
In short: as §1

[8] = tested on: morningglory (Ipomoea coccinea); assay: Test C preemergence; details: for Plant response rating, Morningglory: scale 0 to 100, 0 no effect, 100 complete control
In short: as §1

[9] = tested on: barnyardgrass (Echinochloa crus-galli); assay: Test C preemergence; details: for Plant response rating, Barnyardgrass: scale 0 to 100, 0 no effect, 100 complete control
In short: as §1

[10] = tested on: velvetleaf (Abutilon theophrasti); assay: Test C preemergence; details: for Plant response rating, Velvetleaf: scale 0 to 100, 0 no effect, 100 complete control
In short: as §1

[11] = tested on: ryegrass, Italian (Italian ryegrass, Lolium multiflorum); assay: Test C preemergence; details: for Plant response rating, Ryegrass, Italian: scale 0 to 100, 0 no effect, 100 complete control
In short: as §1

[12] = tested on: ragweed (common ragweed, Ambrosia elatior); assay: Test C preemergence; details: for Plant response rating, Ragweed: scale 0 to 100, 0 no effect, 100 complete control
In short: as §1

[13] = tested on: crabgrass, large (large crabgrass, Digitaria sanguinalis); assay: Test C preemergence; details: for Plant response rating, Crabgrass, Large: scale 0 to 100, 0 no effect, 100 complete control
In short: as §1

[14] = tested on: lambsquarters (Chenopodium album); assay: Test C preemergence; details: for Plant response rating, Lambsquarters: scale 0 to 100, 0 no effect, 100 complete control
In short: as §1

[15] = tested on: Galium (catchweed bedstraw, Galium aparine); assay: Test C preemergence; details: for Plant response rating, Galium: scale 0 to 100, 0 no effect, 100 complete control
In short: as §1

[16] = 31 g ai/ha, 0 is no effect, 100 is complete control

Cc1ccc(C2CN(C)C(=O)C2C(=O)Nc2ccccc2F)cc1F (stereo not shown) [Compound 465]
40: Plant response rating (scale of 0 to 100), Corn (corn (Zea mays); [16])
80: Plant response rating, Waterhemp ([1]; 125 g ai/ha) | Plant response rating, Waterhemp ([1]; 250 g ai/ha) | Plant response rating, Blackgrass ([2]; 125 g ai/ha) | Plant response rating, Johnsongrass ([4]; 125 g ai/ha) | Plant response rating, Wheat ([7]; 125 g ai/ha) | Plant response rating, Ragweed ([12]; 250 g ai/ha) | Plant response rating (scale of 0 to 100), Galium [15, 16]
25: Plant response rating, Pigweed ([5]; 62 g ai/ha) | Plant response rating, Morningglory ([8]; 125 g ai/ha)
20: Plant response rating (scale of 0 to 100), Blackgrass [2, 16] | Plant response rating (scale of 0 to 100), Wheat [7, 16] | Plant response rating, Morningglory ([8]; 62 g ai/ha)
100: Plant response rating, Barnyardgrass ([9]; 250 g ai/ha) | Plant response rating (scale of 0 to 100), Crabgrass, Large [13, 16] | Plant response rating, Crabgrass, Large ([13]; 62 g ai/ha) | Plant response rating, Crabgrass, Large ([13]; 125 g ai/ha) | Plant response rating, Crabgrass, Large ([13]; 250 g ai/ha) | Plant response rating, Lambsquarters ([14]; 250 g ai/ha)
90: Plant response rating, Blackgrass ([2]; 250 g ai/ha) | Plant response rating, Oilseed Rape ([6]; 250 g ai/ha) | Plant response rating, Corn (corn (Zea mays); 250 g ai/ha) | Plant response rating (scale of 0 to 100), Barnyardgrass [9, 16] | Plant response rating, Galium ([15]; 125 g ai/ha)
75: Plant response rating, Ragweed ([12]; 125 g ai/ha) | Plant response rating (scale of 0 to 100), Lambsquarters [14, 16] | Plant response rating, Lambsquarters ([14]; 62 g ai/ha)
50: Plant response rating, Blackgrass ([2]; 62 g ai/ha) | Plant response rating, Morningglory ([8]; 250 g ai/ha)
55: Plant response rating, Pigweed ([5]; 250 g ai/ha) | Plant response rating, Corn (corn (Zea mays); 62 g ai/ha) | Plant response rating, Velvetleaf ([10]; 125 g ai/ha)
30: Plant response rating (scale of 0 to 100), Oilseed Rape [6, 16]
15: Plant response rating, Soybean (soybean (Glycine max); 250 g ai/ha, scale 0 to 100, 0 no effect, 100 complete control) | Plant response rating (scale of 0 to 100), Velvetleaf [10, 16]
60: Plant response rating (scale of 0 to 100), Waterhemp [1, 16] | Plant response rating, Pigweed ([5]; 125 g ai/ha) | Plant response rating, Ragweed ([12]; 62 g ai/ha)
10: Plant response rating (scale of 0 to 100), Johnsongrass [4, 16] | Plant response rating (scale of 0 to 100), Pigweed [5, 16] | Plant response rating, Oilseed Rape ([6]; 62 g ai/ha) | Plant response rating (scale of 0 to 100), Ryegrass, Italian [11, 16]
85: Plant response rating, Johnsongrass ([4]; 250 g ai/ha) | Plant response rating, Oilseed Rape ([6]; 125 g ai/ha) | Plant response rating, Lambsquarters ([14]; 125 g ai/ha) | Plant response rating, Galium ([15]; 62 g ai/ha)
98: Plant response rating, Barnyardgrass ([9]; 125 g ai/ha) | Plant response rating, Galium ([15]; 250 g ai/ha)
5: Plant response rating (scale of 0 to 100), Soybean (soybean (Glycine max); [16]) | Plant response rating (scale of 0 to 100), Morningglory [8, 16] | Plant response rating, Velvetleaf ([10]; 62 g ai/ha)
95: Plant response rating, Wheat ([7]; 250 g ai/ha) | Plant response rating, Barnyardgrass ([9]; 62 g ai/ha)
0: Plant response rating, Rice (rice (Oryza sativa); 16 g ai/ha, scale 0 to 100 (0 no effect, 100 complete control), 13 to 15 d) | Plant response rating (scale of 0 to 100), Rice (rice (Oryza sativa); 31 g ai/ha) | Plant response rating (scale of 0 to 100), Rice (rice (Oryza sativa); 62 g ai/ha) | Plant response rating (scale of 0 to 100), Rice (rice (Oryza sativa); 125 g ai/ha) | Plant response rating (scale of 0 to 100), Nutsedge, Yellow [3, 16] | Plant response rating, Nutsedge, Yellow ([3]; 62 g ai/ha) | Plant response rating, Nutsedge, Yellow ([3]; 125 g ai/ha) | Plant response rating, Nutsedge, Yellow ([3]; 250 g ai/ha) | Plant response rating (scale of 0 to 100), Ragweed [12, 16]
65: Plant response rating, Johnsongrass ([4]; 62 g ai/ha) | Plant response rating, Corn (corn (Zea mays); 125 g ai/ha) | Plant response rating, Velvetleaf ([10]; 250 g ai/ha) | Plant response rating, Ryegrass, Italian ([11]; 125 g ai/ha) | Plant response rating, Ryegrass, Italian ([11]; 250 g ai/ha)
70: Plant response rating, Waterhemp ([1]; 62 g ai/ha) | Plant response rating, Wheat ([7]; 62 g ai/ha) | Plant response rating, Ryegrass, Italian ([11]; 62 g ai/ha)
